Data set [1] in a line: Ratio of drug level in olfactory bulb against striatum in Sprague-Dawley rat after 30 mins. The following applies: in vivo, 0.5 h. Format: ADME, tissue-based.
Data set [2] is described as follows: Stability in iv dosed ddy mouse brain after 30 min. Format: ADME, organism-based. The following applies: read-out: Stability.
Data set [3] can be described thus: Ratio of drug level in choroids plexus against striatum in Sprague-Dawley rat after 30 mins. Format: ADME, tissue-based. The following applies: in vivo, 0.5 h.
A further data set is filed under the species Rattus norvegicus. The data set can be described thus: Displacement of [11C]flumazenil from CBR in Sprague-Dawley rat brain.
Data set [4] deals with T1, Translocator protein (Rattus norvegicus, UniProt P16257). Put plainly: Displacement of [11C]PK-11195 from PBR in Sprague-Dawley rat brain. In kind it is tissue-based.
In data set [5] the target is T1, Translocator protein. The data set can be described thus: Displacement of [11C]DAA1106 from PBR in Sprague-Dawley rat brain. Format: tissue-based.
Data set [6] is described as follows: Distribution coefficient, log D at pH 7.4 by shake flask method. In kind it is physicochemical. The following applies: octanol/water.

pIC50: −log10 of the molar value.

T1 sequence (P16257 whole entry, looked up): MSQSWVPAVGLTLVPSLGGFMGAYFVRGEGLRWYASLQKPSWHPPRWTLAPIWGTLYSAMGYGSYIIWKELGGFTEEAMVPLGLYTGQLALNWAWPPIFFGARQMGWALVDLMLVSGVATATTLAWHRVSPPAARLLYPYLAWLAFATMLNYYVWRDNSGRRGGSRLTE

Regarding `COc1ccc([131I])c(CN(C(C)=O)c2cc(F)ccc2Oc2ccccc2)c1`, the Ratio in data set [1] is listed as 1.5; in data set [3], 3.2. In data set [2], the remaining at 0.5 h came out at 90%.
For the compound `CCC(C)N(C)C(=O)c1cc2ccccc2c(-c2ccccc2Cl)n1` (centres undefined), the negative logarithm of the IC50 (pIC50) in the data set filed under Rattus norvegicus was below 5.00.
For `COc1ccc(I)c(CN(C(C)=O)c2cc(F)ccc2Oc2ccccc2)c1`, the pIC50 at Translocator protein [4] was 8.36; in the data set filed under Rattus norvegicus, below 5.00; at Translocator protein [5], 8.11. The compound also returned a logD in data set [6] of 4.42.
Taken in the same sequence, the figures for `COc1ccc(OC)c(CN(C(C)=O)c2cc(I)ccc2Oc2ccccc2)c1` were 7.22, below 5.00, 7.16 and 4.03.
Take `COc1ccc(OC)c(CN(C(C)=O)c2cc(F)ccc2Oc2ccccc2)c1`: the negative logarithm of the IC50 (pIC50) is 8.89 on Translocator protein [4] and below 5.00 in the data set filed under Rattus norvegicus.

Source of the values: ChEMBL document CHEMBL1141419, “N-(5-Fluoro-2-phenoxyphenyl)-N-(2-[(131)I]iodo-5-me thoxybenzyl)acetamide: a potent iodinated radioligand for the peripheral-type benzodiazepine receptor in brain” (J Med Chem, 2007).
